Reference: patent publication US20230158151A1 (NURIX THERAPEUTICS, INC., priority 2021, published 2023)
Like-named read-outs stand apart in the source and are kept apart here.

Columns and labels:
ITK = target: T1, ITK (Homo sapiens, UniProt Q08881); experiment: ITK Degradation HiBiT Assay; format: cell-based
T1 construct: Compounds provided herein were assayed in vitro with ITK HiBit cell lines; endogenous in cells; host or cells: Molt4 (ATCC CRL-1552 [sic]), monoclonal clone 1C10
T1 sequence (Q08881 1-620): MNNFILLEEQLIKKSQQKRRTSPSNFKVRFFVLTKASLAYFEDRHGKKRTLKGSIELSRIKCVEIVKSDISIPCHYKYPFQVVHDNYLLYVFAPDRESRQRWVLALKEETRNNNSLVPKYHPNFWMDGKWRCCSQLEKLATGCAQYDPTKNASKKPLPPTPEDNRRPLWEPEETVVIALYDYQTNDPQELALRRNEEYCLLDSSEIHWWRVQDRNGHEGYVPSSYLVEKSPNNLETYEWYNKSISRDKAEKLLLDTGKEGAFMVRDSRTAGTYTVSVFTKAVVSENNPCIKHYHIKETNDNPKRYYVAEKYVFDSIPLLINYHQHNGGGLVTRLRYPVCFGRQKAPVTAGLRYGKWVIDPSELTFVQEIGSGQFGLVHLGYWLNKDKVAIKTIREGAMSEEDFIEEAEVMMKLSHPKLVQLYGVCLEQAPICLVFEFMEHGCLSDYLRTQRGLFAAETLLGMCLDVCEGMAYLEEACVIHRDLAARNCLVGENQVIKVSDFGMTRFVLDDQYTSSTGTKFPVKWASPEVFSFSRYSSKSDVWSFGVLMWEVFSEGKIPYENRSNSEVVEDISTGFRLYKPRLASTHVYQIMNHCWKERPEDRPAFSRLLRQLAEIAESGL
Procedure: Compounds provided herein were assayed in vitro with ITK HiBit cell lines. Compound dilution series (11-point, 5 fold dilutions in DMSO, columns 2-12 with replicate in rows A/B, C/D, E/F, G, H at 2000× the final required concentrations were prepared in 96 well plate (Falcon, cat. no. 353077). Column 1, rows A-H were control DMSO. The 2000× solutions ranged from 2 mM to 1.024 nM (final assay concentration range 1 μM to […]). The 2000× solutions were added to cells in […], for a final DMSO concentration of 0.5% and final assay compound concentration of 1×. For the cells, C-terminal HiBiT-tagged Molt4 cells (ATCC CRL-1552, monoclonal cell line clone 1C10) were plated at 1×10^6 cells/mL, 100 μL/well ([…]) in complete RPMI (10% FBS, 1% L-glutamine). The cells were incubated with compound 32 and compound 30 for 4 hrs at 32° C./6% CO2.
Following incubation, 100 μL of complete Nano-Glo HiBiT Lytic Detection Reagent (Nano-Glo HiBiT Lytic Buffer with 1:50 Nano-Glo HiBiT Lytic Substrate and 1:100 LgBiT Protein; Promega cat. no. N3O40) was added. Cells were further incubated for 10 min at room temperature (RT). Luminescence units (LU) were read on an EnVision plate reader (Perkin Elmer, 0.1 sec per well). Percent ITK remaining per sample was calculated as follows: […]
Using Graphpad Prism, % ITK remaining values were plotted as a function of compound concentration. To determine DC50 and Dmax values, resulting curves were fit to the Prism curve-fitting equation “log(inhibitor) vs response−Variable slope (four parameters)” (reported best fit value IC50 used as DC50). ITK was measured with antibody-based MSD (Meso-Scale Discovery) assays shown below.

[1] = Mouse PK Analysis (plasma LC/MS/MS, noncompartmental PK parameters); format: in vivo; parameters: AUC(0-t): concentration or dose not given beside the values; conditions: mice; for AUC(0-t) / Cmax / Tmax: mouse, oral administration, plasma
Procedure: Compounds 30 and 29 were administered to mice orally. After 6 hours or 24 hours, splenocytes cells were harvested. ITK was evaluated by Western blotting. Plasma concentrations were determined by LC/MS/MS. Plasma samples were protein precipitated by addition of 100 μl of acetonitrile containing 50 ng/ml of internal standard. The resulting mixture was vortexed and centrifuged at 4000 RPM for 5 minutes. An aliquot of the resultant supernatant (75 μl) was added to 75 μl of 0.1% formic acid in water to constitute the final sample for injection. Samples were injected on a Shimadzu Exion LC Binary Gradient AD Pump HLPC system connected to a Sciex QTRAP 6500+ mass spectrometer. Five μl of sample was injected onto a Waters Acquity UPLC BEH C18 column 130A (2.1×30 mm, […]) at 40° C. utilizing a flow rate of 700 μl/minute. Mobile Phase A was 0.1% formic acid in water and mobile phase B was 0.1% formic acid in acetonitrile. A linear gradient of 15-95% B over 1.0 minute was used. The mass spectrometer was operated in positive ion electrospray mode with multiple reaction monitoring for maximum sensitivity. Sciex Analyst software (version 1.6.3) was used for LC/MS/MS instrument control and acquisition. Compound concentration was determined against a standard curve of internal standard versus compound peak area ratio. Noncompartmental PK parameters were determined using Phoenix 32 software (version 8.2.0.4383) from Certara. Plasma concentrations from the LC/MS/MS analyses, dose, route of administration, and desired units were utilized for PK parameter calculations. […] FIG. 3C provides the concentration over time of compound 30 following in vivo oral administration in the 6 hour and 24 hour assays.
Cmax, Tmax and AUClast were all calculated using a WinNonLin Phoenix 64 v 8.2.0.4383. Using non-compartmental analysis, Tmax, Cmax and AUClast were determined as follows:
Tmax—Time of maximum observed concentration. Cmax—Maximum observed concentration, occurring at time Tmax, as defined above. AUClast—Area under the curve from the time of dosing to the time of the last measurable (positive) concentration (Tlast).

[2] = MOLT-4, C-terminal HiBiT-tagged Molt4 cells, 4 hrs incubation, read-out: HiBiT DMax (%)
[3] = C-terminal HiBiT-tagged Molt4 cells, 4 hrs incubation

## C[C@@H](C(=O)N(C)c1ccc2cc(-c3n[nH]c4c3C[C@@H]3C(F)(F)[C@]3(C)C4)[nH]c2c1)N1CCN(CC2CCN(c3ccc(C4CCC(=O)NC4=O)cn3)CC2)CC1 (stereo partly drawn) [Compound 30, (2S)—N-(2-((4aS,5aR)-5,5-difluoro-5a-methyl-1,4,4a,5,5a,6-hexahydrocyclopropa[f]indazol-3-yl)-1H-indol-6-yl)-2-(4-((1-(5-(2,6-dioxopiperidin-3-yl)pyridin-2-yl)piperidin-4-yl)methyl)piperazin-1-yl)-N-methylpropanamide]
ITK; ITK degradation in HiBiT cell line, FIG. 1, read-out: Dmax values (FIG. 1)
  Dmax: 90 to 100%
ITK; [2]
  Dmax: 85%
[1]; oral, 6 hour and 24 hour assays
  detection in plasma: detected in plasma through 6 and 24 hours
[1]
  AUC(0-t): 1.25 µM·h
  Cmax: 870 nM
  Tmax: 2 h

## CN(C(=O)CC1CCN(c2ccc(C3CCC(=O)NC3=O)cn2)CC1)c1ccc2cc(-c3n[nH]c4c3C[C@@H]3C(F)(F)[C@]3(C)C4)[nH]c2c1 (stereo partly shown) [Compound 27]
[1]
  AUC(0-t): 1.69 µM·h
  Cmax: 609 nM
  Tmax: 1 h

## CC1(C)CCc2c(-c3cc4ccc(C(=O)N5CCN(CC6CCN(c7ccc(C8CCC(=O)NC8=O)nc7)CC6)CC5)cc4[nH]3)n[nH]c2C1 (stereo not shown) [Compound 42, 3-(5-(4-((4-(2-(6,6-dimethyl-4,5,6,7-tetrahydro-1H-indazol-3-yl)-1H-indole-6-carbonyl)piperazin-1-yl)methyl)piperidin-1-yl)pyridin-2-yl)piperidine-2,6-dione]
ITK; [3]
  DC50: 0.003 nM
ITK; [2]
  Dmax: 88%
[1]
  AUC(0-t): 28 µM·h
  Cmax: 5100 nM
  Tmax: 2 h

## C[C@@]12Cc3[nH]nc(-c4cc5ccc(N6CCC7(CCN(C(=O)C8CCN(c9ccc(C%10CCC(=O)NC%10=O)cn9)CC8)CC7)C6=O)cc5[nH]4)c3C[C@@H]1C2(F)F (stereo partly drawn) [Compound 16, 3-(6-(4-(2-(2-((4aS,5aR)-5,5-difluoro-5a-methyl-1,4,4a,5,5a,6-hexahydrocyclopropa[f]indazol-3-yl)-1H-indol-6-yl)-1-oxo-2,8-diazaspiro[4.5]decane-8-carbonyl)piperidin-1-yl)pyridin-3-yl)piperidine-2,6-dione]
ITK; [2]
  Dmax: 90%

## CC1(C)CCc2c(-c3cc4ccc(C(=O)N5CCC(CN6CCN(c7cccc(C8CCC(=O)NC8=O)n7)CC6)CC5)cc4[nH]3)n[nH]c2C1 (stereo not shown) [Compound 41]
ITK; [2]
  Dmax: 27%

## CC1(C)CCc2c(-c3cc4ccc(C(=O)N5CCC(CC6CCN(c7ccc(C8CCC(=O)NC8=O)cn7)CC6)CC5)cc4[nH]3)n[nH]c2C1 (stereo not shown) [Compound 19, 3-(6-(4-((1-(2-(6,6-dimethyl-4,5,6,7-tetrahydro-1H-indazol-3-yl)-1H-indole-6-carbonyl)piperidin-4-yl)methyl)piperidin-1-yl)pyridin-3-yl)piperidine-2,6-dione]
ITK; [2]
  Dmax: 73%

## CN(C(=O)C1CCN(C(=O)c2ccc3cc(-c4n[nH]c5c4CCC(C)(C)C5)[nH]c3c2)CC1)C1CCN(c2ccc(C3CCC(=O)NC3=O)cn2)CC1 (stereo not shown) [Compound 33, 1-(2-(6,6-dimethyl-4,5,6,7-tetrahydro-1H-indazol-3-yl)-1H-indole-6-carbonyl)-N-(1-(5-(2,6-dioxopiperidin-3-yl)pyridin-2-yl)piperidin-4-yl)-N-methylpiperidine-4-carboxamide]
ITK; [3]
  DC50: 0.04 nM
ITK; [2]
  Dmax: 80%

## C[C@@]12Cc3[nH]nc(C(=O)Nc4cnn([C@H](c5ccccc5)C5CN(C(=O)C6CN(c7ccc(C8CCC(=O)NC8=O)cn7)C6)C5)c4)c3C[C@@H]1C2(F)F (stereo partly drawn) [Compound 21, (4aS,5aR)—N-(1-((1S)-(1-(1-(5-(2,6-dioxopiperidin-3-yl)pyridin-2-yl)azetidine-3-carbonyl)azetidin-3-yl)(phenyl)methyl)-1H-pyrazol-4-yl)-5,5-difluoro-5a-methyl-1,4,4a,5,5a,6-hexahydrocyclopropa[f]indazole-3-carboxamide]
ITK; [3]
  DC50: < 0.01 nM
ITK; [2]
  Dmax: 83%

## CC1(C)CCc2c(-c3cc4ccc(C(=O)N5CCN(CCCCc6ccc(C7CCC(=O)NC7=O)cc6)CC5)cc4[nH]3)n[nH]c2C1 (stereo not shown) [Compound 40, 3-(4-(4-(4-(2-(6,6-dimethyl-4,5,6,7-tetrahydro-1H-indazol-3-yl)-1H-indole-6-carbonyl)piperazin-1-yl)butyl)phenyl)piperidine-2,6-dione]
ITK; [3]
  DC50: 15 nM
ITK; [2]
  Dmax: 68%

## CN(C(=O)c1ccc2cc(-c3n[nH]c4c3CCC(C)(C)C4)[nH]c2c1)C1CCN(CC2CCN(c3ccc(C4CCC(=O)NC4=O)cn3)CC2)CC1 (stereo not shown) [Compound 18, 2-(6,6-dimethyl-4,5,6,7-tetrahydro-1H-indazol-3-yl)-N-(1-((1-(5-(2,6-dioxopiperidin-3-yl)pyridin-2-yl)piperidin-4-yl)methyl)piperidin-4-yl)-N-methyl-1H-indole-6-carboxamide]
ITK; [3]
  DC50: 0.68 nM
ITK; [2]
  Dmax: 87%
